Patent US4707481A, “Pyridazinones, their preparation and use, and bronchospasmolytic medicaments containing pyridazinones” (BYK Gulden Lomberg Chemische Fabrik GmbH, priority 1983, dated 1987)
Where two headings read alike, the source gives them in different places.

Tests used:
[1] = tested on: chain of tracheal rings of guinea pigs; assay: relaxing action on chain of tracheal rings in vitro (bronchospasmolytic action); set-up: species or system guinea pig; conditions: for EC50: Cavia porcellus, Column A, negative logarithm of EC50 in mol/l, 50% of maximum relaxation by (-)isoprenaline, read-out: -lg[EC50] trachea (converted); for [EC40 pot.] left atrium / [EC50] trachea: Column C, measure of organ-selective activity; for [EC50] theophylline / [EC50] substance: Column D, trachea
Description: The relaxing action of the 6-aryl-3[2H]pyridazinones I has been tested in vitro on a chain of tracheal rings (Tr.) of guinea pigs. […] The quotient of [EC40pot. ]left atrium and [ED50 ]trachea serves as a measure of the organ-selective activity.
The bronchospasmolytic action of the compounds on the chain of tracheal rings of the guinea pig was tested in vitro:
Four parallel chains of tracheal rings, each consisting of 6 individual rings, of guinea pigs(.male. and .female., 430-600 g) in an organ bath [5 ml, Krebs-Henseleit solution with added phentolamine (10^-5 mol/l), 37° C., initial tension of the organs 2 g, gassing with carbogen] develop a stable, spontaneous tonic contraction after about 20 to 30 minutes. […] Over a period of 20 to 30 minutes, a complete dose/action curve of the test substance is thus obtained. The particular relaxation is expressed as a percentage fraction of the maximum relaxation which can be achieved by administration of (-)isoprenaline (10^-6 mol/1). The concentration of the test substance which causes 50% of the maximum relaxation which can be achieved, expressed by the negative logarithm of the EC50 mol/l: -lg[EC50 ]is a measure of the bronchodilator activity.

[2] = tested on: electrically stimulated left atrium of rats; assay: positive inotropic action on electrically stimulated left atrium in vitro; set-up: species or system rat; conditions: for [EC40 pot.] theophylline / [EC40 pot.] substance: Column E, left atrium; for EC40: Rattus norvegicus, Column B, negative logarithm of EC40pot in mol/l, 40% increase in contraction force, read-out: -lg[EC40 pot.] left atrium (converted)
[3] = toxicity studies, mouse p.o.; conditions: in vivo, po; for LD50 at 168 h: Column F, mouse p.o., 7 days observation, read-out: Approximate LD50
Description: The toxicity studies are carried out on female NMRI mice (body weight 23-30 g). The animals (5 animals per dose) receive food and water ad libitum. Various doses of the substances are administered once as a suspension in methocel via a gavage. The period of observation lasts 7 days. The tolerated dose (TD), that is to say the highest dose at which as yet none of the animals die, is determined by observation. The average lethal dose (LD50), that is to say the dose at which 50% of the animals die, is determined from the dose/action curve by means of linear regression.

[4] = tested on: acetylcholine-induced bronchospasm; assay: protective effect against acetylcholine-induced bronchospasm in conscious guinea pigs; type: in vivo, guinea pig; conditions: for Doubling of the latency period / Tripling of the latency period: 30 min; for Tripling of the latency period: figure in parentheses
Description: The figure in parentheses indicates the number out of 10 animals in which the latency period more than tripled.
The latency period is to be understood to be the time from the start of acetylcholine-atomization until clear signs of asthma appeared.
The time from the start of atomization to the onset of clear respiratory exertion (in certain circumstances, hypoxic convulsion in the lateral position) is measured, and is denoted the latency period.
The test substance is administered orally by gavage (standard dose 100 μmol/kg, volume 1 ml of 4% strength methocel suspension in 0.9% strength sodium chloride solution/kg). […] Prolongation of the latency period to at least twice its length is regarded as a protective effect.

[5] = tested on: guinea pig hearts isolated and perfused by the Langendorff method; assay: left-ventricular pressure and heart rate in isolated perfused Langendorff hearts; conditions: for Emax: Cavia porcellus; for EC20 left-ventricular pressure: dose which leads to a 20% increase in left ventricular pressure
Description: After the animals have been sacrificed by a blow to the neck and exsanguination through the carotid arteries, the thoracic cavity is opened, and the aorta is exposed and looped up with a thread. A cannula, which is attached by tubing to the apparatus from which the nutrient solution slowly drops, is introduced in the direction of the heart and the heart is, quickly after removal from the thorax, connected to the perfusion apparatus. A balloon probe, connected to a Statham pressure sensor, is advanced through a cut through the left atrium into the left ventricle, and is provided with an initial pressure of 40 mm Hg. […] The nutrient solution flowing freely from the coronary sinus into the right atrium is measured with a flow […]) and, together with the change in the left-ventricular pressure and the heart rate determined from this, is recorded on a Watanabe recorder. The substances are administered in a volume of 0.1 ml of nutrient solution, in the dosage indicated in Tab.

[6] = tested on: right ventricle of guinea pigs; assay: heart function dP/dtmax, right ventricle of anesthetized guinea pigs; type: in vivo, guinea pig
Description: The effect of the substances on the contractility of the heart of guinea pigs is tested on animals (.male., 400 to 1000 g) under urethane anesthesia. The change in pressure in the right ventricle of the heart is measured with a tip catheter introduced through the right jugular vein and the maximum rate of pressure rise (dP/dtmax) is determined from this. The heart rate is derived from the pressure waves. […] The test substances were administered intravenously. 5-7 animals were used for each measurement, and the arithmetic mean was calculated from the results.

[7] = tested on: histamine-induced bronchospasm; assay: inhibition of histamine-induced bronchospasm in anesthetized guinea pigs; type: in vivo, guinea pig; conditions: for inhibition of histamine-induced bronchospasm, TVi / inhibition of histamine-induced bronchospasm, Vmaxe / inhibition of histamine-induced bronchospasm, Vmaxi: 20 μmol/kg i.v.
Description: A method for simultaneously recording pharmacodynamic and toxic effects on internal sensitive receptors, on the respiration and the cardiovascular system of guinea pigs was used [U. Kilian, E. Muller, E. Ch. […] To characterize the bronchospasm induced by histamine (0.09-0.18 μmol /kg i.v.), the maximum flow rate of the respiratory air during inspiration (Vmaxi) and expiration (Vmaxe) and the breath volume (BVi) were measured. A histamine spasm before administration of the substance was compared with several histamine spasms after administration of the substance. The test substances were administered intravenously (i.v.) and/or intrajejunally (i.j.). 5 to 10 animals were used per measurement, and the arithmetic mean was calculated from the results.

[8] = after 500 nMol, read-out: Emax left-ventricular pressure
[9] = at Emax, 500 nMol, read-out: Percentage increase in heart rate at Emax

SMILES | EC50 [1] [µM] | [EC40 pot.] left atrium / [EC50] trachea [1] | [EC50] theophylline / [EC50] substance [1] | [EC40 pot.] theophylline / [EC40 pot.] substance [2] | EC40 [2] [µM] | LD50 at 168 h [3] [mg/kg] | Percentage increase in heart rate at EC20 [5] [%] | EC20 left-ventricular pressure [5] [nmol] | further results
CCCOc1cc(-c2ccc(=O)[nH]n2)ccc1OC [Serial No. 10, 6-(4-methoxy-3-n-propoxyphenyl)-3[2H]pyridazinone] | 0.468 | 1.3 | 288 | 661 | 0.631 | 770 | 9 | 40 | Doubling of the latency period ([4]; 100 μmol/kg p.o.): 6 N of 10 animals; Tripling of the latency period ([4]; 100 μmol/kg p.o.): 6 N of 10 animals; Doubling of the latency period ([4]; 300 μmol/kg p.o.): 10 N of 10 animals; Tripling of the latency period ([4]; 300 μmol/kg p.o.): 8 N of 10 animals; protective effect compared with theophylline ([4]; result in words): greater protective effect; Emax [5, 8]: 61%; Emax [5, 9]: 19%; Percentage change in dP/dtmax ([6]; 0.3 μmol/kg i.v., 0-10 min (Maximum)): 42%; Percentage change in dP/dtmax ([6]; 0.3 μmol/kg i.v., 10 min): 16%; Percentage change in dP/dtmax ([6]; 0.3 μmol/kg i.v., 30 min): 21%; Percentage change in dP/dtmax ([6]; 1 μmol/kg i.v., 0-10 min (Maximum)): 97%; Percentage change in dP/dtmax ([6]; 1 μmol/kg i.v., 10 min): 45%; Percentage change in dP/dtmax ([6]; 1 μmol/kg i.v., 30 min): 46%; Percentage change in dP/dtmax ([6]; 3 μmol/kg i.v., 0-10 min (Maximum)): 164%; Percentage change in dP/dtmax ([6]; 3 μmol/kg i.v., 10 min): 90%; Percentage change in dP/dtmax ([6]; 3 μmol/kg i.v., 30 min): 66%
COc1ccc(-c2ccc(=O)[nH]n2)cc1OC(C)C [Serial No. 11, 6-(4-methoxy-3-isopropoxyphenyl)-3[2H]pyridazinone] | 0.0977 | 10000 | 1370 |  | > 1000 | 600 |  |  | inhibition of histamine-induced bronchospasm, TVi ([7]; 2 min): 117%; inhibition of histamine-induced bronchospasm, Vmaxe ([7]; 2 min): 123%; inhibition of histamine-induced bronchospasm, Vmaxi ([7]; 2 min): 152%; inhibition of histamine-induced bronchospasm, TVi ([7]; 10 min): 84%; inhibition of histamine-induced bronchospasm, Vmaxe ([7]; 10 min): 109%; inhibition of histamine-induced bronchospasm, Vmaxi ([7]; 10 min): 113%; inhibition of histamine-induced bronchospasm, TVi ([7]; 20 min): 54%; inhibition of histamine-induced bronchospasm, Vmaxe ([7]; 20 min): 63%; inhibition of histamine-induced bronchospasm, Vmaxi ([7]; 20 min): 89%; inhibition of histamine-induced bronchospasm, TVi ([7]; 30 min): 38%; inhibition of histamine-induced bronchospasm, Vmaxe ([7]; 30 min): 43%; inhibition of histamine-induced bronchospasm, Vmaxi ([7]; 30 min): 47%; inhibition of histamine-induced bronchospasm, TVi ([7]; 60 min): 5%; inhibition of histamine-induced bronchospasm, Vmaxe ([7]; 60 min): 6%; inhibition of histamine-induced bronchospasm, Vmaxi ([7]; 60 min): 9%; inhibition of histamine-induced bronchospasm compared with theophylline ([7]; result in words): significantly more effective than theophylline
CCCOc1ccc(-c2ccc(=O)[nH]n2)cc1OC [compound 2] | 0.417 |  |  |  | 7.24 | 530 |  |  | Emax ([5]; after 300 nMol, read-out: Emax left-ventricular pressure): 59%; Emax ([5]; at Emax, 300 nMol, read-out: Percentage increase in heart rate at Emax): 13%
CCOc1cc(-c2ccc(=O)[nH]n2)ccc1OC [compound 8] | 0.339 | 3.9 | 398 | 316 | 1.32 | 550 |  |  | 
C=CCOc1cc(-c2ccc(=O)[nH]n2)ccc1OC [compound 9] | 0.537 | 2.3 | 251 | 331 | 1.26 | 610 | 7 | 50 | Emax [5, 8]: 53%; Emax [5, 9]: 21%
COc1ccc(-c2ccc(=O)[nH]n2)cc1OCCC(C)C [compound 12] | 0.501 | 2000 | 269 |  | > 1000 | 960 |  |  | 
COc1ccc(-c2ccc(=O)[nH]n2)cc1 [compound 19] | 8.91 | 19.1 | 15.1 | 4.7 | 170 |  | 6 | 160 | tolerated dose ([3]; mouse, 10080 min): > 400; Emax ([5]; after 1000 nMol, read-out: Emax left-ventricular pressure): 45%; Emax ([5]; at Emax, 1000 nMol, read-out: Percentage increase in heart rate at Emax): 11%
